Test results: the NIST ThermoML archive (doi:10.1016/j.tca.2011.10.010)

Assay: xn = mol fraction of the nth substance listed
Conditions: 101 kPa, Liquid, Vibrating tube method

CCN(CC)CCO.Cl [2-(diethylamino)ethanol hydrochloride] + OCC(O)CO
mass density [kg/m3]
Conditions | x1 = 0.2 | x1 = 0.25 | x1 = 0.33
298.15 K | 1220.1 | 1205.1 | –
303.15 K | 1217.3 | 1202 | 1170
308.15 K | 1214.1 | 1199 | –
313.15 K | 1211.4 | 1196.1 | 1163.8
318.15 K | 1208.1 | 1192.9 | –
323.15 K | 1204.8 | 1188.4 | 1158.5
328.15 K | 1202.1 | 1186.8 | –
333.15 K | 1198.9 | 1184 | 1153.1
338.15 K | 1196.1 | 1180.7 | –
343.15 K | 1193.6 | 1177.7 | 1145.8
348.15 K | 1190.1 | 1174.6 | –
353.15 K | 1187.3 | 1171.9 | 1140.3
358.15 K | 1184.1 | 1168.5 | –
363.15 K | 1180.7 | 1166.1 | 1134.4
368.15 K | 1178.1 | 1162.4 | –

CCN(CC)CCO.Cl [2-(diethylamino)ethanol hydrochloride] + OCCO
mass density [kg/m3]
Conditions | x1 = 0.2 | x1 = 0.25 | x1 = 0.33
298.15 K | 1103.7 | – | 1099.5
303.15 K | 1100.4 | 1098.6 | 1096.5
308.15 K | 1097.3 | – | 1093.3
313.15 K | 1094.2 | 1092.6 | 1090.3
318.15 K | 1091 | – | 1087.1
323.15 K | 1087.7 | 1086.2 | 1084
328.15 K | 1084.6 | – | 1080.9
333.15 K | 1081.5 | 1079.7 | 1077.8
338.15 K | 1078.2 | – | 1074.8
343.15 K | 1075 | 1074 | 1071.7
348.15 K | 1071.8 | – | 1068.6
353.15 K | 1068.3 | 1067.5 | 1065.5
358.15 K | 1065.4 | – | 1062.4
363.15 K | 1062.2 | 1060 | 1059
368.15 K | 1059 | – | 1056.2

C[N+](C)(C)CCO.[Cl-] [choline chloride] + OCC(O)CO
mass density [kg/m3]
Conditions | x1 = 0.25 | x1 = 0.33 | x1 = 0.5
298.15 K | 1203 | 1192 | –
303.15 K | 1200.2 | 1189.5 | 1153.5
308.15 K | 1197.6 | 1186.7 | –
313.15 K | 1195.1 | 1183.8 | 1148.3
318.15 K | 1192.2 | 1181.4 | –
323.15 K | 1189.1 | 1177.6 | 1143
328.15 K | 1186.8 | 1176.1 | –
333.15 K | 1184.4 | 1174.1 | 1137.9
338.15 K | 1181.4 | 1170.8 | –
343.15 K | 1178.1 | 1167.4 | 1132.6
348.15 K | 1176 | 1165.5 | –
353.15 K | 1173.2 | 1163.5 | 1126.6
358.15 K | 1170.6 | 1160.2 | –
363.15 K | 1167.8 | 1157.1 | 1122
368.15 K | 1165.2 | 1154.9 | –

C[N+](C)(C)CCO.[Cl-] [choline chloride] + OCCO
mass density [kg/m3]
Conditions | x1 = 0.28 | x1 = 0.33 | x1 = 0.36
298.15 K | 1117 | – | 1118
303.15 K | 1114.1 | 1114.6 | 1115.6
308.15 K | 1111.1 | – | 1112.2
313.15 K | 1108.2 | 1108.8 | 1109.7
318.15 K | 1105.2 | – | 1106.4
323.15 K | 1102.3 | 1103.6 | 1103.7
328.15 K | 1099.3 | – | 1100.6
333.15 K | 1096.2 | 1097.4 | 1096.8
338.15 K | 1093.4 | – | 1094.8
343.15 K | 1090.4 | 1091.6 | 1091
348.15 K | 1087.5 | – | 1089
353.15 K | 1084.7 | 1085.4 | 1087
358.15 K | 1081.6 | – | 1083.2
363.15 K | 1078.8 | 1079.1 | 1082
368.15 K | 1075.7 | – | 1077.4

C[P+](c1ccccc1)(c1ccccc1)c1ccccc1.[Br-] [methyltriphenylphosphonium bromide] + OCC(O)CO
mass density [kg/m3]
Conditions | x1 = 0.2 | x1 = 0.25 | x1 = 0.33
298.15 K | 1288.9 | 1297.6 | –
303.15 K | 1285.5 | 1294.5 | 1303
308.15 K | 1281.7 | 1290.6 | –
313.15 K | 1278 | 1287 | 1295.2
318.15 K | 1274.5 | 1283.6 | –
323.15 K | 1271 | 1280.9 | 1288.6
328.15 K | 1267.3 | 1276.6 | –
333.15 K | 1263.4 | 1273.6 | 1281.7
338.15 K | 1260.1 | 1269.6 | –
343.15 K | 1256.8 | 1266 | 1274.9
348.15 K | 1252.9 | 1262.6 | –
353.15 K | 1249.5 | 1259.3 | 1268.2
358.15 K | 1245.7 | 1255.6 | –
363.15 K | 1242.3 | 1252.4 | 1261.5
368.15 K | 1238.5 | 1248.6 | –

C[P+](c1ccccc1)(c1ccccc1)c1ccccc1.[Br-] [methyltriphenylphosphonium bromide] + OCCO
mass density [kg/m3]
Conditions | 303.15 K | 313.15 K | 323.15 K | 333.15 K | 343.15 K | 353.15 K | 363.15 K
x1 = 0.16 | 1216.3 | 1208.6 | 1202 | 1194.7 | 1187 | 1179.2 | 1172.3
x1 = 0.2 | 1229 | 1222 | 1215.1 | 1207.9 | 1200.6 | 1193.6 | 1186.4
x1 = 0.25 | 1242.4 | 1239.8 | 1232.4 | 1226 | 1218.8 | 1211.9 | 1204.5
